Reference: ChEMBL document CHEMBL4715815, “Design, synthesis and biological evaluation of 7H-pyrrolo[2,3-d]pyrimidin-4-amine derivatives as selective Btk inhibitors with improved pharmacokinetic properties for the treatment of rheumatoid arthritis” (Eur J Med Chem, 2018)
Calls of active or inactive are those of the source. The calls are words filed in the database; no cut-off is given here.

Tests used:
[1] = Tmax in Sprague-Dawley rat at 3 mg/kg, iv measured up to 24 hrs by LC-MS/MS analysis; format: ADME, organism-based; settings: in vivo
HEK293 = assay: Cytotoxicity against human HEK293 cells assessed as reduction in cell viability incubated for 72 hrs by MTT assay; format: ADME, cell-based; settings: HEK293, 72 h
L02 = assay: Cytotoxicity against human L02 cells assessed as reduction in cell viability incubated for 72 hrs by MTT assay; format: ADME, cell-based; settings: L02, 72 h
[2] = molecular target: Tyrosine-protein kinase JAK1 (Homo sapiens, UniProt P23458); assay: Inhibition of JAK1 (unknown origin)
[3] = Toxicity in BALB/c mouse assessed as effect on kidney at 2 g/kg, po measured after 7 days of administration by histopathological analysis; settings: in vivo, 168 h
[4] = Metabolic stability in human liver microsomes assessed as half life at 100 uM/L measured upto 90 mins by LC-MS/MS analysis; format: ADME, Microsome
[5] = molecular target: Ribosomal protein S6 kinase alpha-6 (Homo sapiens, UniProt Q9UK32); assay: Inhibition of RSK4 (unknown origin)
[6] = molecular target: Macrophage colony-stimulating factor 1 receptor (Homo sapiens, UniProt P07333); assay: Inhibition of recombinant human FMS using Ulight-TK peptide as substrate incubate for 15 mins by LANCE assay
[7] = molecular target: Receptor tyrosine-protein kinase erbB-2 (Homo sapiens, UniProt P04626); assay: Inhibition of ErBB2 (unknown origin)
[8] = molecular target: T1, Tyrosine-protein kinase BTK (Homo sapiens, UniProt Q06187)
Description: Reversible inhibition of BTK (unknown origin) assessed as association rate constant by caliper mobility shift assay

[9] = molecular target: T1, Tyrosine-protein kinase BTK; assay: Inhibition of BTK in human Raji cells assessed as reduction in BTK Y551 phosphorylation at 0.03 to 10 uM incubated for 1 hr by Western blot analysis; format: cell-based; settings: dose 0.03-10 µM
[10] = molecular target: Tyrosine-protein kinase Yes (Homo sapiens, UniProt P07947); assay: Inhibition of recombinant human YES using biotinyl-beta Abeta-Abeta AYQAEENTYDEYEN as substrate incubate for 30 mins by LANCE assay
[11] = molecular target: Ribosomal protein S6 kinase alpha-2 (Homo sapiens, UniProt Q15349); assay: Inhibition of RSK3 (unknown origin)
[12] = molecular target: Dual specificity mitogen-activated protein kinase kinase 4 (Homo sapiens, UniProt P45985); assay: Inhibition of MKK4 (unknown origin)
[13] = molecular target: Proto-oncogene tyrosine-protein kinase receptor Ret (Homo sapiens, UniProt P07949); assay: Inhibition of RET (unknown origin)
Mus musculus = assay: Antiarthritic activity in DBA/1J mouse model of collagen-induced arthritis at 20 mg/kg, po administered for 30 days and measured on day 30; format: functional, organism-based; settings: time 30.0 day
[14] = molecular target: Tyrosine-protein kinase ITK/TSK (Homo sapiens, UniProt Q08881); assay: Inhibition of ITK (unknown origin)
[15] = Volume of distribution in Sprague-Dawley rat at 3 mg/kg, po measured up to 24 hrs by LC-MS/MS analysis; format: ADME, organism-based; settings: in vivo
[16] = molecular target: Calcium/calmodulin-dependent protein kinase type 1 (Homo sapiens, UniProt Q14012); assay: Inhibition of CAMK1 (unknown origin)
[17] = molecular target: T1, Tyrosine-protein kinase BTK; assay: Inhibition of BTK in human Daudi cells assessed as reduction in BTK Y551 phosphorylation at 0.03 to 10 uM incubated for 1 hr by Western blot analysis; format: cell-based; settings: dose 0.03-10 µM
[18] = molecular target: Calcium/calmodulin-dependent protein kinase type II subunit beta (Homo sapiens, UniProt Q13554); assay: Inhibition of CAMK2 (unknown origin)
[19] = molecular target: Tyrosine-protein kinase JAK2 (Homo sapiens, UniProt O60674); assay: Inhibition of recombinant human JAK2 using Ulight-CAGAGAIETDKEYYTVKD as substrate incubate for 60 mins by LANCE assay
[20] = molecular target: Tyrosine-protein kinase SYK (Homo sapiens, UniProt P43405); assay: Inhibition of SYK (unknown origin)
[21] = molecular target: Calcium/calmodulin-dependent protein kinase type IV (Homo sapiens, UniProt Q16566); assay: Inhibition of CAMK4 (unknown origin)
[22] = Metabolic stability in monkey liver microsomes assessed as intrinsic clearance at 100 uM/L measured upto 90 mins by LC-MS/MS analysis; format: ADME, Macaca mulatta, Microsome; settings: rhesus monkey, 1.5 h
[23] = molecular target: Tyrosine-protein kinase Fyn (Homo sapiens, UniProt P06241); assay: Inhibition of recombinant human FYN using biotinyl-beta Abeta-Abeta AYQAEENTYDEYEN as substrate incubate for 60 mins by LANCE assay
[24] = Cmax in Sprague-Dawley rat at 3 mg/kg, iv measured up to 24 hrs by LC-MS/MS analysis; format: ADME, organism-based; parameters: route intravenous, dose 3 mg/kg, time <=24; settings: in vivo
[25] = Toxicity in DBA/1J mouse assessed as effect on body weight at 20 mg/kg, po administered for 30 days and measured on day 30; format: organism-based; settings: in vivo, 720 h, time 30 day
[26] = molecular target: Epidermal growth factor receptor (Homo sapiens, UniProt P00533)
[27] = Toxicity in BALB/c mouse assessed as effect on liver at 2 g/kg, po measured after 7 days of administration by histopathological analysis; settings: in vivo, 168 h
[28] = Metabolic stability in mouse liver microsomes assessed as intrinsic clearance at 100 uM/L measured upto 90 mins by LC-MS/MS analysis; format: ADME, Microsome; settings: 1.5 h
[29] = molecular target: Tyrosine-protein kinase Lyn (Homo sapiens, UniProt P07948); assay: Inhibition of recombinant human LYN using biotinyl-beta Abeta-Abeta AKVEKIGEGTYGVVYK as substrate incubate for 120 mins by LANCE assay
[30] = molecular target: Mitogen-activated protein kinase kinase kinase 2 (Homo sapiens, UniProt Q9Y2U5); assay: Inhibition of MEKK2 (unknown origin)
[31] = Metabolic stability in dog liver microsomes assessed as intrinsic clearance at 100 uM/L measured upto 90 mins by LC-MS/MS analysis; format: ADME, Canis lupus familiaris, Microsome; settings: 1.5 h
[32] = Volume of distribution in Sprague-Dawley rat at 3 mg/kg, iv measured up to 24 hrs by LC-MS/MS analysis; format: ADME, organism-based; settings: in vivo
[33] = Toxicity in BALB/c mouse assessed as effect on heart at 2 g/kg, po measured after 7 days of administration by histopathological analysis; settings: in vivo, 168 h
THP-1 = assay: Cytotoxicity against human THP-1 cells assessed as reduction in cell viability incubated for 72 hrs by MTT assay; format: ADME, cell-based; settings: THP-1, 72 h
[34] = molecular target: High affinity nerve growth factor receptor (Homo sapiens, UniProt P04629); assay: Inhibition of recombinant human TRKa using Ulight-Poly GAT[EAY(1:1:1)]n as substrate incubate for 10 mins by LANCE assay
[35] = Toxicity in BALB/c mouse assessed as effect on spleen at 2 g/kg, po measured after 7 days of administration by histopathological analysis; settings: in vivo, 168 h

T1 sequence (Q06187 whole entry): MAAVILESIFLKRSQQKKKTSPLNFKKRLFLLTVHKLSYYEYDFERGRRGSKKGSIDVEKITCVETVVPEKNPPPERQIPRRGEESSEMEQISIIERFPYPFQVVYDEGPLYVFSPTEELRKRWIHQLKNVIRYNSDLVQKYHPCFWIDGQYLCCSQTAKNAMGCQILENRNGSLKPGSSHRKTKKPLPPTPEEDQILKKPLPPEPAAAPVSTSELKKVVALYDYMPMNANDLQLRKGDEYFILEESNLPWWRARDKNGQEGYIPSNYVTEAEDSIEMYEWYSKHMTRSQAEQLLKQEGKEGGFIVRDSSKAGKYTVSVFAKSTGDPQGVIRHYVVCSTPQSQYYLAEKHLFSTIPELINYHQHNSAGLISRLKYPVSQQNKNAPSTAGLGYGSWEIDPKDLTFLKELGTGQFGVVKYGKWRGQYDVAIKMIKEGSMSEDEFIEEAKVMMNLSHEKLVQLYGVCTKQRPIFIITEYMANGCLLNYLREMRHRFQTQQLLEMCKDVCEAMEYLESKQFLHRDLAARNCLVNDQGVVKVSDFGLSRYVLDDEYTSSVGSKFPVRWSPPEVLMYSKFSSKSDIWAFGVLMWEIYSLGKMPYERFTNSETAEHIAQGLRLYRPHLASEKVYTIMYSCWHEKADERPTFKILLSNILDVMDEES
Mitogen-activated protein kinase kinase kinase 2, sequence (Q9Y2U5 whole entry): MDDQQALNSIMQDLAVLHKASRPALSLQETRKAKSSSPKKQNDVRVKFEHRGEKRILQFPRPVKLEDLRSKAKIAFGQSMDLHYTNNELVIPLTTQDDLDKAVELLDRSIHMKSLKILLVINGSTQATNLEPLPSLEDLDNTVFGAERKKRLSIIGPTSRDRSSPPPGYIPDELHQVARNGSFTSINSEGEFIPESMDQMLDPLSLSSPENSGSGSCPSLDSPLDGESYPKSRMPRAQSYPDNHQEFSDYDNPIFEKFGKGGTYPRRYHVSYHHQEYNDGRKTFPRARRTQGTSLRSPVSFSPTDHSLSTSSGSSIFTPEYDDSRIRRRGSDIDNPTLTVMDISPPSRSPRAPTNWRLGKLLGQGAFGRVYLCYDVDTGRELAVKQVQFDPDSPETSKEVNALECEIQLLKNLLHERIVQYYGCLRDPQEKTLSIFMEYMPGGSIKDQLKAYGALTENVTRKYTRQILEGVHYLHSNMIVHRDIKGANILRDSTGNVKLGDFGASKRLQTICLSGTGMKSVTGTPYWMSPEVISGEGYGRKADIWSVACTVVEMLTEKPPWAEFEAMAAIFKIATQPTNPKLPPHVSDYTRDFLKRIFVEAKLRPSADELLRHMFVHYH
High affinity nerve growth factor receptor, sequence (P04629 whole entry): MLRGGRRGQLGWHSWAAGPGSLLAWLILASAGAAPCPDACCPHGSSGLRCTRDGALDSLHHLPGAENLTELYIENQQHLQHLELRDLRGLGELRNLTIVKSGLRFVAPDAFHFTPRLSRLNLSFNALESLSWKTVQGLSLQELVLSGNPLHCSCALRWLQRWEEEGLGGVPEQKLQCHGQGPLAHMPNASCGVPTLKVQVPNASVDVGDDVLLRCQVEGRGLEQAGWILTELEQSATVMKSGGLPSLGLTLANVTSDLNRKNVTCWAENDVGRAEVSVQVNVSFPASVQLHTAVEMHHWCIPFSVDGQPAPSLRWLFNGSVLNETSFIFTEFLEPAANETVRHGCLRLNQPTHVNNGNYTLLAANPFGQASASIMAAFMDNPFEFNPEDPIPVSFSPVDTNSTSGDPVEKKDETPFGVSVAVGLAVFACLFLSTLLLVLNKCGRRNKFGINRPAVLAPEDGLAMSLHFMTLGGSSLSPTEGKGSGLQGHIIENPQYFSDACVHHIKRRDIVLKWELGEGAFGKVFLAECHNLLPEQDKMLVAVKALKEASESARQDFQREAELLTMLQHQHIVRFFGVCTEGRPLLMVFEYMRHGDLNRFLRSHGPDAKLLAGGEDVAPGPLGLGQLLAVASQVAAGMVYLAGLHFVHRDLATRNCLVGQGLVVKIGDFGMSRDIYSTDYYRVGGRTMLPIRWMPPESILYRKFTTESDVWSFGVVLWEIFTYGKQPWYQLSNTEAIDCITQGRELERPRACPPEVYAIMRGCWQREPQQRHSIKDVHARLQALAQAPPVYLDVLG
Macrophage colony-stimulating factor 1 receptor, sequence (P07333 whole entry): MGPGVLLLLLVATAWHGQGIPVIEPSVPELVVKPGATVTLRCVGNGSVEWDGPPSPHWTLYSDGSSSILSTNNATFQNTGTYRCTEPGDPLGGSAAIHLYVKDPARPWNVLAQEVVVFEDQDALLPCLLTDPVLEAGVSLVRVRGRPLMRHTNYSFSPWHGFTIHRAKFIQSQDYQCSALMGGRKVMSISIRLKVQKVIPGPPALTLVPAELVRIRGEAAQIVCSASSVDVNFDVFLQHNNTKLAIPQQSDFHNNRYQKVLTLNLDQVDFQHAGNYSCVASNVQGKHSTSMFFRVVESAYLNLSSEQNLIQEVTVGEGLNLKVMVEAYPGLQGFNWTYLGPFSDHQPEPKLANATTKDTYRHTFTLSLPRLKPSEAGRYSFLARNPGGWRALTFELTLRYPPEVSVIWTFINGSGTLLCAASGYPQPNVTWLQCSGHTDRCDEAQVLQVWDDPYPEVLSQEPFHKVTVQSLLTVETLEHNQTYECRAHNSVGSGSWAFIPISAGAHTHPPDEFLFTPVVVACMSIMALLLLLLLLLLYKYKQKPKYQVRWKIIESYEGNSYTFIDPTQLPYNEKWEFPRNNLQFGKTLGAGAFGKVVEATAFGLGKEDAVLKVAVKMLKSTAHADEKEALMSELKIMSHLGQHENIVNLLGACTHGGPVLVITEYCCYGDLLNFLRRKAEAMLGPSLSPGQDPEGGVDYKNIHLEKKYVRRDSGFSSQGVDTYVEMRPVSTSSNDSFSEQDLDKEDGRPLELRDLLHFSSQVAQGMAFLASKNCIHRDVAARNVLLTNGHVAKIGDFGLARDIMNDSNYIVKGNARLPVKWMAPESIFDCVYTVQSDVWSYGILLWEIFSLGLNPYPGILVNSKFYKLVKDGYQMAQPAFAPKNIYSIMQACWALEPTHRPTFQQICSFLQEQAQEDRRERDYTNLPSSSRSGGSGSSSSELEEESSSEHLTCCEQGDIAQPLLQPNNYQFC
Dual specificity mitogen-activated protein kinase kinase 4, sequence (P45985 whole entry): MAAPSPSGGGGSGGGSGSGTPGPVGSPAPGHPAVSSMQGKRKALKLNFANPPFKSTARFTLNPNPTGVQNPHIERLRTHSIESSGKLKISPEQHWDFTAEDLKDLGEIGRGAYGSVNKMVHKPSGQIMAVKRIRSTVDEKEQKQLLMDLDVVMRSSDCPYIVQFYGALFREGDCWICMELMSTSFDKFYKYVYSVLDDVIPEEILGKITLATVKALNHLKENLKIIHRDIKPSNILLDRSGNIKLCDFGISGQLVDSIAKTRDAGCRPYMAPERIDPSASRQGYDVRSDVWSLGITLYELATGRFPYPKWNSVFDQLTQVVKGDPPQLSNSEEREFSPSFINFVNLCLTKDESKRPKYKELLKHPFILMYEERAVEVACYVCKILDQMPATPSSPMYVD
Ribosomal protein S6 kinase alpha-6, sequence (Q9UK32 whole entry): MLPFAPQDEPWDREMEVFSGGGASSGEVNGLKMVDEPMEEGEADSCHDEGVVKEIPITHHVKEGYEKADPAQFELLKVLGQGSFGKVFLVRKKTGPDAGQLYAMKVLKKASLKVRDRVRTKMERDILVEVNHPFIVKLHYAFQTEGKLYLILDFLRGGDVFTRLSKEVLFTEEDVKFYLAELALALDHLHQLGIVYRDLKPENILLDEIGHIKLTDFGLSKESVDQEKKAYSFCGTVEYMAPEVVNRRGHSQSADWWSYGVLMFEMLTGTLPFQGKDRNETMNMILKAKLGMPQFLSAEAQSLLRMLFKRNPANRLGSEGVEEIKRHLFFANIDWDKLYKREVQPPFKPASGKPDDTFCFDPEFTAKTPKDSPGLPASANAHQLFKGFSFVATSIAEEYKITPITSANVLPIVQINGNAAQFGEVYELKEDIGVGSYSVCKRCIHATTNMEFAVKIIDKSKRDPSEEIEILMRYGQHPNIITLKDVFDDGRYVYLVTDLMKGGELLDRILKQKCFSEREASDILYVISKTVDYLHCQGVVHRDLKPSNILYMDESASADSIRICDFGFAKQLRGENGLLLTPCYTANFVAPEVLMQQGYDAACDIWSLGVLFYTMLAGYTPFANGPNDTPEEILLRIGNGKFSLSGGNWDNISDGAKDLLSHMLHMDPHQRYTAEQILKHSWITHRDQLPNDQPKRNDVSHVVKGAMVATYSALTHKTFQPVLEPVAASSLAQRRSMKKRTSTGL
Tyrosine-protein kinase Yes, sequence (P07947 whole entry): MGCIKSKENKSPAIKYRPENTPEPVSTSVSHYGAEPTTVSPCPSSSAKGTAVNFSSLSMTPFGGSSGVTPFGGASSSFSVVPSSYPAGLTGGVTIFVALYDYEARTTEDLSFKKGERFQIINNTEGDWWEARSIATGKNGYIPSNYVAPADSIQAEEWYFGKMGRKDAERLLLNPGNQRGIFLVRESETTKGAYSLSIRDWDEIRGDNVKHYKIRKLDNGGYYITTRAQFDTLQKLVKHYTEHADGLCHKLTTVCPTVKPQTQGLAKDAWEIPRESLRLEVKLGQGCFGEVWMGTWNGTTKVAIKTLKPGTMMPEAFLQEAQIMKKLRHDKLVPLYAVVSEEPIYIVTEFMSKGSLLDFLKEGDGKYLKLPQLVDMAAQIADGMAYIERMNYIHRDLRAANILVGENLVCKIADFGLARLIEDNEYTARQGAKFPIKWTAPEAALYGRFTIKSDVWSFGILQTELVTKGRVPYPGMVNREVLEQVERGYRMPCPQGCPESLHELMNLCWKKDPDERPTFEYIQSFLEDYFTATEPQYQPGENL

C=CC(=O)N1CCC(Cn2cc(-c3ccc4c(c3)OCO4)c3c(N)ncnc32)CC1
Tmax [1]: 6.6 min
IC50 (HEK293): 34.2 µM
IC50 (L02): 31.3 µM
IC50 [2]: > 10 µM
Activity [3]: Non-Toxic
half-life at 100 µM [4]: 5.5 h
IC50 [5]: > 10 µM
IC50 [6]: > 10 µM
IC50 [7]: > 10 µM
Ka [8]: 9630 M⁻¹ s⁻¹
inhibition [9]: inactive
IC50 [10]: 0.146 µM
IC50 [11]: > 10 µM
IC50 [12]: > 10 µM
IC50 [13]: 0.64 µM
Activity (Mus musculus): Active
IC50 [14]: > 10 µM
Vd [15]: 26.15 L/kg
IC50 [16]: > 10 µM
inhibition [17]: inactive
IC50 [18]: > 10 µM
IC50 [19]: > 10 µM
IC50 [20]: > 10 µM
IC50 [21]: > 10 µM
CLH [22]: 8.2 µL/min/mg
IC50 [23]: 1.01 µM
Cmax [24]: 3130 ng/mL
Activity [25]: Non-Toxic
IC50 [26]: > 10 µM
Activity [27]: Non-Toxic
CLH [28]: 5.4 µL/min/mg
IC50 [29]: 0.259 µM
IC50 [30]: > 10 µM
CLH [31]: 4.4 µL/min/mg
Vd [32]: 1.21 L/kg
Activity [33]: Non-Toxic
IC50 (THP-1): 38.9 µM
IC50 [34]: > 10 µM
Activity [35]: Non-Toxic
